Assay results published in US20100144708A1, “HETEROCYCLIC COMPOUNDS CONTAINING NITROGEN ATOMS OR PHARMACEUTICALLY ACCEPTABLE SALTS THEREOF, PROCESS FOR THE PREPARATION THEREOF AND PHARMACEUTICAL COMPOSITION COMPRISING THE SAME FOR TREATMENT OF CANCER” (Korea Research Instititute of Bioscience and Biotechnology, priority 2006, published 2010).

Assays:
Type in all cases: cell-based, Human
[1] = system: MBA-MB-231 (breast cancer); assay: Test for inhibition of tumor cell growth (SRB), MBA-MB-231; conditions: Homo sapiens; 48 hours, SRB staining
Summary of the method: (§1)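 Cells seeded in RPMI 1640 with 5% FBS, exposed to compound (final […], units as printed) for 48 hours at 37° C with 5% CO2, including a time-zero plate. TCA-fixed, SRB-stained, absorbance at 540 nm as percent of control; GI50 is the 50% growth-inhibition concentration.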

NUGC-3 (gastric cancer) = assay: Test for inhibition of tumor cell growth (SRB), NUGC-3; conditions: Homo sapiens, NUGC-3; 48 hours, SRB staining
Summary of the method: as §1

ACHN (kidney cancer) = assay: Test for inhibition of tumor cell growth (SRB), ACHN; conditions: Homo sapiens, ACHN; 48 hours, SRB staining
Summary of the method: as §1

PC-3 (prostate cancer) = assay: Test for inhibition of tumor cell growth (SRB), PC-3; conditions: Homo sapiens; 48 hours, SRB staining; read-out: GI50 PC-3 (prostate ancer)
Summary of the method: as §1

Compound	GI50 [1] [µg/mL]	GI50 (NUGC-3 (gastric cancer)) [µg/mL]	GI50 (ACHN (kidney cancer)) [µg/mL]	GI50 (PC-3 (prostate cancer)) [µg/mL]
C=CC[N+]1(CC)CCN(S(=O)(=O)CCCCCCCCCCCC)CC1 [Example 85, 1-allyl-4-(dodecane-1-sulfonyl)-1-ethyl-piperazin-1-ium bromide]	1.01	0.22	0.53	0.41
CCCCCCCCCS(=O)(=O)N1CC[N+](CC)(Cc2cccc([N+](=O)[O-])c2)CC1 [Example 89, 1-ethyl-1-(3-nitrobenzyl)-4-(nonylsulfonyl)piperazin-1-ium bromide]	> 10	> 10	> 10	4.02
CCCCCCCCCCS(=O)(=O)N1CC[N+](CC)(Cc2cccc([N+](=O)[O-])c2)CC1 [Example 91, 4-(decane-1-sulfonyl)-1-ethyl-1-(3-nitrobenzyl)piperazin-1-ium bromide]	> 10	1.54	4.82	0.83
CCCCCCCCCCCS(=O)(=O)N1CC[N+](CC)(CC)CC1 [Example 92, 1,1-diethyl-4-(undecane-1-sulfonyl)piperazin-1-ium iodide]	1.62	0.21	0.81	0.45
CCCCCCCCCCCCCCS(=O)(=O)N1CC[N+](CC)(CC)CC1 [Example 94, 1,1-diethyl-4-(tetradecane-1-sulfonyl)piperazin-1-ium iodide]	0.46	0.37	0.31	0.53
CCCCCCCCCS(=O)(=O)N1CC[N+](CC)(Cc2ccccc2)CC1 [Example 100, 1-benzyl-1-ethyl-4-(nonane-1-sulfonyl)piperazin-1-ium bromide]	> 10	1.73	> 10	4.08
C=CC[N+]1(CC)CCN(S(=O)(=O)CCCCCCCCC)CC1 [Example 101, 1-allyl-1-ethyl-4-(nonane-1-sulfonyl)piperazin-1-ium bromide]	> 10	3.28	> 10	2.34
CCCCCCCCCS(=O)(=O)N1CC[N+](C)(C)CC1 [Example 102, 1,1-dimethyl-4-(nonane-1-sulfonyl)piperazin-1-ium iodide]	> 10	> 10	> 10	> 10
CCCCCCCCCCCCCCCCCCS(=O)(=O)N1CC[N+](CC)(Cc2ccc(C(C)(C)C)cc2)CC1 [Example 114, 1-(4-t-butylbenzyl)-1-ethyl-4-(octadecane-1-sulfonyl)piperazin-1-ium bromide]	2.24	3.16	2.32	2.01
CCCCCCCCCCCCCCCC(=O)N1CCC[N+](C)(CC)CC1 (stereo not drawn) [Example 116, 1-ethyl-1-methyl-4-palmitoyl-1,4-diazepan-1-ium iodide]	0.59	0.25	0.29	0.36
CCCCCCCCCCCC(=O)N1CCC[N+](C)(C)CC1 [Example 117, 4-dodecanoyl-1,1-dimethyl-1,4-diazepan-1-ium iodide]	2.68	0.6	1.07	0.5
C=CC[N+]1(C)CCCN(C(=O)CCCCCCCCCCC)CC1 (stereo not drawn) [Example 118, 1-allyl-4-dodecanoyl-1-methyl-1,4-diazepan-1-ium bromide]	3.84	0.87	2.18	0.78
CCCCCCCCCCCC(=O)N1CCC[N+](C)(Cc2ccc(OC)cc2)CC1 (stereo not drawn) [Example 119, 4-dodecanoyl-1-(4-methoxybenzyl)-1-methyl-1,4-diazepan-1-ium chloride]	2.48	0.36	1.48	0.57

The next lines start with the values.

GI50 [1] [µg/mL]	GI50 (NUGC-3 (gastric cancer)) [µg/mL]	GI50 (ACHN (kidney cancer)) [µg/mL]	GI50 (PC-3 (prostate cancer)) [µg/mL]	Compound
1.42	0.45	0.69	0.61	CCCCCCCCCCCCS(=O)(=O)N1CC[N+](C)(CC)CC1 [Example 83, 4-(dodecane-1-sulfonyl)-1-ethyl-1-methyl-piperazin-1-ium iodide]
1.35	0.75	1.12	0.74	CCCCCCCCCCCCS(=O)(=O)N1CC[N+](CC)(Cc2ccccc2)CC1 [Example 84, 1-benzyl-4-(dodecane-1-sulfonyl)-1-ethyl-piperazin-1-ium bromide]
4.48	1.99	3.79	0.88	CCCCCCCCCCS(=O)(=O)N1CC[N+](C)(Cc2ccc(F)cc2)CC1 [Example 86, 4-(decane-1-sulfonyl)-1-(4-fluorobenzyl)-1-methyl-piperazin-1-ium bromide]
> 10	1.56	> 10	1.25	CCCCCCCCCCS(=O)(=O)N1CC[N+](CC)(Cc2ccc(F)cc2)CC1 [Example 87, 4-(decane-1-sulfonyl)-1-ethyl-1-(4-fluorobenzyl)-piperazin-1-ium bromide]
1.59	0.93	1.37	0.68	CCCCCCCCCCCCS(=O)(=O)N1CC[N+](C)(Cc2ccc(F)cc2)CC1 [Example 88, 4-(dodecane-1-sulfonyl)-1-(4-fluorobenzyl)-1-methyl-piperazin-1-ium bromide]
2.56	1.98	3.22	1.57	CCCCCCCCCCCCS(=O)(=O)N1CC[N+](C)(Cc2ccc(C)cc2)CC1 [Example 90, 4-(dodecane-1-sulfonyl)-1-methyl-1-(4-methylbenzyl)piperazin-1-ium bromide]
2.71	0.62	1.11	0.67	CCCCCCCCCCCS(=O)(=O)N1CC[N+](C)(CC)CC1 [Example 93, 1-ethyl-1-methyl-4-(undecane-1-sulfonyl)piperazin-1-ium iodide]
0.64	2.24	0.46	0.35	CCCCCCCCCCCCCCS(=O)(=O)N1CC[N+](C)(CC)CC1 [Example 95, 1-ethyl-1-methyl-4-(tetradecane-1-sulfonyl)piperazin-1-ium iodide]
0.6	2.73	3.25	0.48	CCCCCCCCCCCCCCCCCCS(=O)(=O)N1CC[N+](C)(Cc2ccc(F)cc2)CC1 [Example 96, 1-(4-fluorobenzyl)-1-methyl-4-(octadecane-1-sulfonyl)piperazin-1-ium bromide]
1.43	0.66	1.21	0.7	CCCCCCCCCCCCS(=O)(=O)N1CC[N+](CC)(Cc2ccc(F)cc2)CC1 [Example 97, 4-(dodecane-1-sulfonyl)-1-ethyl-1-(4-fluorobenzyl)piperazin-1-ium bromide]
1.01	0.28	1.05	0.35	CCCCCCCCCCCCS(=O)(=O)N1CC[N+](CC)(Cc2cccc([N+](=O)[O-])c2)CC1 [Example 98, 4-(dodecane-1-sulfonyl)-1-ethyl-1-(3-nitrobenzyl)piperazin-1-ium bromide]
> 10	> 10	> 10	> 10	CCCCCCCCCS(=O)(=O)N1CC[N+](C)(CC)CC1 [Example 99, 1-ethyl-1-methyl-4-(nonane-1-sulfonyl)piperazin-1-ium iodide]
> 10	3.45	> 10	1.25	CCCCCCCCCS(=O)(=O)N1CC[N+](C)(Cc2ccccc2)CC1 [Example 103, 1-benzyl-1-methyl-4-(nonane-1-sulfonyl)piperazin-1-ium bromide]
> 10	> 10	> 10	3.45	CCCCCCCCCS(=O)(=O)N1CC[N+](C)(Cc2ccc(F)cc2)CC1 [Example 104, 1-(4-fluorobenzyl)-1-methyl-4-(nonane-1-sulfonyl)piperazin-1-ium bromide]
3.56	1.6	4.13	0.61	CCCCCCCCCCS(=O)(=O)N1CC[N+](C)(Cc2cccc(C)c2)CC1 [Example 106, 4-(decane-1-sulfonyl)-1-methyl-1-(3-methylbenzyl)piperazin-1-ium bromide]
> 10	2.72	> 10	1.05	CCCCCCCCCCS(=O)(=O)N1CC[N+](C)(Cc2ccc(C)cc2)CC1 [Example 107, 4-(decane-1-sulfonyl)-1-methyl-1-(4-methylbenzyl)piperazin-1-ium bromide]
1.19	0.65	1.42	0.45	CCCCCCCCCCCCS(=O)(=O)N1CC[N+](C)(Cc2cccc(C)c2)CC1 [Example 108, 4-(dodecane-1-sulfonyl)-1-methyl-1-(3-methylbenzyl)piperazin-1-ium bromide]
1.75	1.75	1.69	0.43	C=CC[N+]1(C)CCN(S(=O)(=O)CCCCCCCCCCC)CC1 [Example 112, 1-allyl-1-methyl-4-(undecane-1-sulfonyl)piperazin-1-ium bromide]
1.23	1.22	1.05	0.41	CCCCCCCCCCCCCCS(=O)(=O)N1CC[N+](CC)(Cc2ccccc2)CC1 [Example 113, 1-benzyl-1-ethyl-4-(tetradecane-1-sulfonyl)piperazin-1-ium bromide]
0.91	1.07	2.01	0.48	CCCCCCCCCCCCCCCCCCS(=O)(=O)N1CC[N+](C)(Cc2ccccc2)CC1 [Example 115, 1-benzyl-1-methyl-4-(octadecane-1-sulfonyl)piperazin-1-ium bromide]
